Where a name gives a salt, the structure may show the parent alone.
How the values were obtained:
conscious dogs = assay: Hypotensive effects in conscious dogs before and after furosemide; format: in vivo, dog
Protocol: (§1) The hypotensive effects of 2-butyl-4-chloro-1-[2'-(1H-tetrazol-5-yl)biphenyl-4-yl)methyl]-5-hydroxymethylimidazole sodium salt were compared before and after furosemide administration to conscious dogs. […] Plasma renin activity (PRA) in these animals was 1.5±0.5 ng AI/ml/hr. Four days later, furosemide was given to three of these dogs at 10 mg/kg im at 18 and 2 hours before the experiment and increased PRA to 19.9±7.2 ng AI/ml/hr. […] Thus a combined therapy of these two classes of drugs will be likely to increase the response rate to therapy among hypertensive patients.

pressor response to AII = assay: Inhibition of the pressor response to AII in conscious dogs; format: in vivo, dog
Protocol: as §1

[1] = target: AII receptor (rat adrenal cortical microsomes); assay: Angiotensin II receptor binding (displacement of 3H-AII); settings: 2 nM 3H-AII, 1 hour at room temperature
Protocol: The hormone angiotensin II (AII) produces numerous biological responses (e.g. vasoconstriction) through stimulation of its receptors on cell membranes. […] The reaction mixture contained rat adrenal cortical microsomes (source of AII receptor) in Tris buffer and 2 nM of ^3 H-AII with or without potential AII antagonist. This mixture was incubated for 1 hour at room temperature and the reaction was subsequently terminated by rapid filtraton and rinsing through glass micro-fibre filter. Receptor-bound ^3 H-AII trapped in filter was quantitiated by scintillation counting.

[2] = test system: awake rats made hypertensive by ligation of the left renal artery; assay: Antihypertensive effects in renal hypertensive rats; format: in vivo, rat
Protocol: This procedure increases blood pressure by increasing renin production with consequent elevation of AII levels. Compounds are administered orally at 100 mg/kg and/or intravenously via a cannula in the jugular vein at 10 mg/kg. Arterial blood pressure is continuously measured directly through a carotid artery cannula and recorded using a pressure transducer and a polygraph. Blood pressure levels after treatment are compared to pretreatment levels to determine the antihypertensive effects of the compounds (See Table 1).
Compounds listed in Table 2 were tested in the same manner as described for Table 1, except that in the test for antihypertensive effects in renal hypertensive rats, the compounds were administered orally at 30 mg/kg and intravenously at 3 mg/kg.

[3] = test system: patients with severe hypertension; assay: Euglycemic hyperinsulinemic glucose clamp (insulin sensitivity); format: in vivo, human
Protocol: (§2) At the time of the study only a three day wash-out period was allowed due to the severity of their hypertension.
(§3) A euglycemic glucose clamp procedure was performed three days after the initial screening, and after withdrawl from previous antihypertensive medications.
The euglycemic hyperinsulinemic glucose "clamp" was performed using a modification of the method described by DeFronzo, et al. Am. J. Physiol. 1979:237: E214-23, as previously detailed by Moan, et al., Metabolism, in press. Insulin was infused at a fixed rate of 1 mU/kg/min. […] This index is a ratio of the glucose disposal rate to the mean level of insulin during the last 20 minutes of the glucose clamp multiplied by 100, and is given arbitrary units. Blood for baseline adrenaline and noradrenaline were sampled in duplicate and the results averaged.

[4] = test system: patients with severe hypertension; assay: Fasting glucose, fructosamine and insulin; format: in vivo, human; settings: after Losartan
Protocol: as §2, §3
(§4) Fasting glucose was determined enzymatically, using a glucose dehydrogenase method and a Cobas Bio analyzer (Roche, Basel Switzerland). A Reflolux II (Mannheim Boehringer GmbH, Mannheim, Germany) was utilized to measure glucose concentration during the glucose clamp procedure (within run coefficient of variation <3% in our laboratory). Fructosamine was determined by calorimetric method. Insulin was measured by radioimmunoassay technique, using a specific antibody from Linco Research Inc. (St. Louis, Mo., USA). The lower limit of detection is 5 mU/l cross reactivity with proinsulin less than 1% and intra-assay coefficient of variation below 9% at all levels. Plasma catecholamines from specialized venous blood were measured by the radioenzymatic technique of Peuler Johnson as detailed in Kjelsen et al., Scan. J. Clin. Invest. 1993:42:217-23. Blood pressure and heart rate were measured oscillometrically with an Omega 1000™ Adult/Pediatric Blood Pressure Recorder (INVIVO Research Laboratories Inc., Tulsa Okla., USA).

[5] = test system: patients with severe hypertension; assay: Baseline plasma catecholamines (radioenzymatic); format: in vivo, human
Protocol: as §2, §3
The euglycemic hyperinsulinemic glucose "clamp" was performed using a modification of the method described by DeFronzo, et al. Am. J. Physiol. 1979:237: E214-23, as previously detailed by Moan, et al., Metabolism, in press. Insulin was infused at a fixed rate of 1 mU/kg/min. This technique for measuring the glucose disposal rate has a day-to-day coefficient of less than 5% percent. […] The steady state levels of insulin varied from one person to another, and as a result the insulin sensitivity index was also calculated. This index is a ratio of the glucose disposal rate to the mean level of insulin during the last 20 minutes of the glucose clamp multiplied by 100, and is given arbitrary units. Blood for baseline adrenaline and noradrenaline were sampled in duplicate and the results averaged.
as §4

[6] = test system: patients with severe hypertension; assay: Blood pressure and heart rate (oscillometric); format: in vivo, human; settings: after Losartan
Protocol: as §2, §3, §4

[7] = test system: effects of AII on the blood pressure of pithed rats; settings: cited from earlier work
arterial pressure = settings: cited from earlier work
[8] = test system: renal vasoconstrictor effect of NSAIDs; settings: cited from earlier work
Plasma renin activity = Plasma renin activity (PRA) in conscious dogs; format: in vivo, dog; settings: furosemide 10 mg/kg im at 18 and 2 hours before; three dogs; before furosemide 1.5±0.5
Protocol: as §1

## CCCCc1nc(Cl)c(CO)n1Cc1ccc(-c2ccccc2-c2nn[nH]n2)cc1 [2-butyl-4-chloro-1-[2'-(1H-tetrazol-5-yl)biphenyl-4-yl)methyl]-5-hydroxymethylimidazole sodium salt]
Conscious dogs; conscious dogs after furosemide 10 mg/kg im at 18 and 2 hours before, cumulative iv, same doses
  blood pressure lowering: significant decrease in blood pressure in a dose-dependent manner
Conscious dogs; normotensive conscious dogs, before furosemide, cumulative iv 0.3 to 3 mg/kg, n=4
  blood pressure lowering: did not lower blood pressure
Pressor response to AII; after furosemide, cumulative iv, same doses
  inhibition of pressor response to AII: inhibited the pressor response to AII at the two higher doses
Pressor response to AII; before furosemide, AII 0.1 μg/kg iv, 10 min post dose, cumulative iv 0.3 to 3 mg/kg
  inhibition of pressor response to AII: effective in inhibiting the pressor response to AII

## CCCCc1nc(Cl)c(C(=O)O)n1Cc1ccc(-c2ccccc2-c2nn[nH]n2)cc1 [EXP-3174]
[1]
  IC50: 11 nM
[2]; Table 2, 3 mg/kg
  Antihypertensive Effects in Renal Hypertensive Rats, Intravenous Activity: + (Significant decrease in blood pressure at 3.0 mg/kg or less)
[2]; Table 2, 30 mg/kg
  Antihypertensive Effects in Renal Hypertensive Rats, Oral Activity: + (Significant decrease in blood pressure at 30 mg/kg or less)

## CCCCc1nc(Cl)c(CO)n1Cc1ccc(-c2ccccc2-c2nnn[nH]2)cc1 [Losartan, 2-n-butyl-4-chloro-5-hydroxymethyl-1-[(2'-(1H-tetrazol-5-yl)biphenyl-4-yl)methyl]imidazole]
[2]; Table 1, 10 mg/kg
  Antihypertensive Effects in Renal Hypertensive Rats, Intravenous Activity: + (Significant decrease in blood pressure at 10 mg/kg or less)
[2]; Table 1, 100 mg/kg
  Antihypertensive Effects in Renal Hypertensive Rats, Oral Activity: + (Significant decrease in blood pressure at 100 mg/kg or less)
[3]; Losartan vs baseline, p<0.05
  increase in glucose disposal rate: 27%
[3]; after Losartan 50-100 mg oral once a day, average about 6 weeks, baseline 6.2±2.6, p<0.05
  glucose disposal rate: 7.9±2.6 mg/kg×min
[3]; insulin infused 1 mU/kg/min, end of Losartan monotherapy, first clamp 85±11
  average plasma insulin level during second clamp: 80±7 mU/l
[4]; baseline 5.0±0.3, non-significant
  fasting glucose: 4.8 ± 0.1 mmol/L
[4]; baseline 12±3, unchanged
  fasting serum insulin: 12±2 mU/l
[4]; baseline 227±18, non-significant
  fructosamine: 217 ± 11 µmol/L
[5]; Losartan vs before treatment, p<0.05
  decrease in baseline plasma noradrenaline: 40%
[5]; after Losartan, before treatment 0.23±0.10, n.s.
  plasma adrenaline: 0.22 ± 0.11 nmol/L
[5]; after Losartan, before treatment 1.87±0.53, p<0.05
  baseline plasma noradrenaline: 1.11 ± 0.13 nmol/L
[6]; before treatment 65±9, n.s.
  baseline heart rate: 68±12 beats/min
[6]; before treatment 132±10, p<0.05
  baseline mean blood pressure: 119±13 mmHg

## CNCC(=O)N[C@@H](CCCN=C(N)N)C(=O)N[C@H](C(=O)N[C@@H](Cc1ccc(O)cc1)C(=O)N[C@H](C(=O)N[C@@H](Cc1cnc[nH]1)C(=O)N1CCC[C@H]1C(=O)N[C@@H](C)C(=O)O)C(C)C)C(C)C [Saralasin, [Sar^1, Ala^8] AII]
[7]; pithed rats
  antagonism of the actions of AII: one of the most potent competitive antagonists of the actions of AII
[7]; rat, in vivo
  agonistic actions: possesses agonistic actions of its own
Arterial pressure; oral doses
  oral efficacy: oral doses being ineffective
Arterial pressure; parenteral administration
  duration of pharmacological effects: relatively short-lasting
Arterial pressure; pressure dependent on circulating AII
  effect on arterial pressure: lower arterial pressure in mammals and man
Arterial pressure; pressure not sustained by AII
  pressor effects: generally elicits pressor effects when the pressure is not sustained by AII
[8]; dogs
  inhibition of renal vasoconstrictor effect of indomethacin: inhibit the renal vasoconstrictor effect
  inhibition of renal vasoconstrictor effect of meclofenamate: inhibit the renal vasoconstrictor effect

## C[C@H](CS)C(=O)N1CCC[C@H]1C(=O)O [captopril]
[8]; dogs with non-hypotensive hemorrhage
  reversal of renal vasoconstrictor effect of indomethacin: reverse the renal vasoconstrictor effect of indomethacin

## NS(=O)(=O)c1cc(C(=O)O)c(NCc2ccco2)cc1Cl [furosemide]
Plasma renin activity
  Plasma renin activity (PRA): 19.9±7.2 ng AI/ml/hr

Reference: patent publication US5962500A, “Insulin sensitivity with angiotensin II receptor blocking imidazoles” (priority 1994, dated 1999)
